These results are taken from patent US7820817B2, “Modulators of muscarinic receptors” (Vertex Pharmaceuticals Incorporated, priority 2004, dated 2010).

The test system of the assay is at least one muscarinic receptor, M1, M2, M3, M4. Kind of assay: Muscarinic modulation activity (Table 3). It is filed as cell-based. Also noted: key: +++: exhibited muscarinic modulation activity for at least one muscarinic receptor, M1, M2, M3, M4, at a concentration of less than 5 μM; ++: exhibited muscarinic modulation activity for at least one muscarinic receptor, M1, M2, M3, M4, at a concentration of between 30 μM and 5 μM; +: exhibited muscarinic modulation activity for at least one muscarinic receptor, M1, M2, M3, M4, at a concentration of greater than 30 μM; −: were not assayed or did not exhibit muscarinic modulation activity for at least one muscarinic receptor, M1, M2, M3, M4, at the concentration at which the assay was performed. The conditions noted are these: concentration at which modulation of at least one muscarinic receptor, M1, M2, M3, M4, was exhibited; CHO cells. Here is the method: CHO cells expressing muscarinic receptors (M1 to M5) are grown as monolayers in tissue culture flasks at 37° C. in a humidified atmosphere containing 5% CO2 and passaged every 3-5 days. The growth media is Dulbecco's modified eagles medium (DMEM, Gibco Cat#12430-054), containing 25 mM Hepes and supplemented with Fetal Bovine Serum (Hyclone, cat#SH30071.03), 0.1 mM of MEM non-essential amino acids (GIBCO, Cat#11140-050), 1 mM MEM Sodium Pyruvate (GIBCO Cat#11360-070) and 100 units/ml of Penicillin G and 100 μg/ml of Streptomycin (GIBCO Cat#15140-122). The recombinant muscarinic receptor cell lines are grown under antibiotic pressure with media containing 25 μg/ml zeocin and 500 μg/ml G418 (M1-CHO), 4 μg/ml puromycin, 50 μg/ml zeocin and 2.5 μg/ml blasticidin (M2 and M4-CHO) or 50 μg/ml zeocin and 4 μg/ml puromycin (M3 and M5-CHO).
Cells are harvested at 80-90% confluence using Versene (GIBCO Cat#15040-066), collected by centrifugation and seeded 18-24 hrs prior to running the calcium assay at a density of 5,000-10,000 cells/well in […], clear-bottomed 384-well plates (BD Biocoat, poly-D-lysine, Cat#356663). The day of the experiment, the cells are washed with a plate washer (Bioteck Instruments, ELX 405) using bath1 buffer (140-mM NaCl, 4.5-mM KCl, 2-mM CaCl2, 1-mM MgCl2, 10-mM Hepes-Na, 10-mM Glucose, pH 7.4, with NaOH) containing 1 mM Probenecid. Next, the calcium dye Fluo-3 (25 μl/well of Fluo-3 AM at 4 μM, Molecular Probes F-1241, in Bath 1 buffer containing 1 mM Probenecid) is added to the 25 μl of Bath 1 remaining in each well after the plate wash and the dye is loaded at 37° C. in the tissue culture incubator for 60-90 min. The fluorescent dye is removed using the plate washer with Bath 1 containing 1 mM Probenecid, leaving 25 μl/well of this solution after the wash. Alternatively, cells can be loaded with the calcium indicator from Molecular Devices (Calcium 3 Assay Reagents, Cat #R7181) adding 5 μl of a 5× solution dye in Bath 1 containing 1 mM Probenecid (10 ml per dye flask cat#R7182 to generate a solution […]) to 20 μl of the same buffer. After loading for 60 min. the experiment can be run without having to remove the dye.
Compounds are prepared at a 2× fold concentration in a 96-well plate (round bottom, Costar Corning cat#3656), by reconstituting the pre-spotted compounds in bath 1 containing 1 mM probenecid. The final concentration DMSO is 0.5%, and the amount of DMSO is normalized across the assay plate. To determine an agonist action of the compounds on muscarinic receptors, the reconstituted compounds are added (25 μl compound/well) to the cell assay plate (containing 25 μl/well) using the multi-channel robotic system of the FLIPR 3 Instrument (Molecular Devices, Sunnyvale, Calif.). To determine a functional inhibitory action of the compounds on muscarinic receptors, the reconstituted compounds are added (25 μl compound/well) to the assay plate and pre-incubated for 15 min prior to adding 25 μl of Carbachol at 3× the EC80 for each muscarinic subtype. Alternatively, the compounds can be co-applied simultaneously with the agonist. In both assay modes, the fluorescence is recorded for 60 sec (excitation wavelength is […] and emission wavelength 540 nm) using the FLIPR 3 instrument.
The potency, efficacy and selectivity of the muscarinic compounds were evaluated by screening the compound activity across the whole family (M1 to M5 cells).
CHO cells expressing muscarinic receptors (M1 to M5) and containing a gene reporter system β-Lactamase) with transcriptional control mediated by calcium release (NFAT activation). See Zlokarnik, G; Negulescu, P. A.; Knapp, T. E.; Mere, L; Burres, N; Feng, L; Whitney, M; Roemer, K; Tsien, R. Y. Quantitation of transcription and clonal selection of single living cells with β-lactamase as reporter. Science, 1998 Jan. 2, 279(5347):84-8. The cells are grown as monolayers in tissue culture flasks at 37° C. in a humidified atmosphere containing 5% CO2 and passaged every 3-5 days. […]
For `c1cc(N2CCN(C3CC4CCC3C4)CC2)ccn1` (stereo not drawn) [Compound 18, 1-norbornan-2-yl-4-(4-pyridyl)piperazine], the “ACTIVITY (muscarinic modulation activity)” value (from here on “ACTIVITY”) is “++ (exhibited muscarinic modulation activity for at least one muscarinic receptor, M1, M2, M3, M4, at a concentration of between 30 μM and 5 μM)”.
As for `Cc1cnc(C)c(N2CCN(C3CC4CCC3C4)CC2)n1` (stereo not drawn) [Compound 40, 2,5-dimethyl-3-(4-norbornan-2-ylpiperazin-1-yl)-pyrazine], the “ACTIVITY” value is reported as “−”.
The value for `Clc1cccnc1N1CCN(C2CC3CCC2C3)CC1` (stereo not drawn) [Compound 7, 1-(3-chloro-2-pyridyl)-4-norbornan-2-yl-piperazine] was “+++ (exhibited muscarinic modulation activity for at least one muscarinic receptor, M1, M2, M3, M4, at a concentration of less than 5 μM)”; that for `Cc1ccc(C#N)c(N2CCN(C3CC4CCC3C4)CC2)n1` (stereo not drawn) [Compound 31, 6-methyl-2-(4-norbornan-2-ylpiperazin-1-yl)-nicotinonitrile] was “++ (exhibited muscarinic modulation activity for at least one muscarinic receptor, M1, M2, M3, M4, at a concentration of between 30 μM and 5 μM)”; that for `c1ccc2c(c1)nnn2C1CCN(C2CC3CCC(C3)C2)CC1` (stereo not drawn) [Compound 9, 1-[1-(3-bicyclo[3.2.1]octyl)-4-piperidyl]-1H-benzotriazole] was “−”.
As to `N#Cc1cccnc1N1CCN(CC2CC3C=CC2C3)CC1` (stereo not drawn) [Compound 42, 2-[4-(5-bicyclo[2.2.1]hept-2-enylmethyl)piperazin-1-yl]nicotinonitrile], the “ACTIVITY” value is given as “+++ (exhibited muscarinic modulation activity for at least one muscarinic receptor, M1, M2, M3, M4, at a concentration of less than 5 μM)”.
In the case of `C1=CC2CC1CC2CN1CCN(c2cnccn2)CC1` (stereo not drawn) [Compound 39, 2-[4-(5-bicyclo[2.2.1]hept-2-enylmethyl)piperazin-1-yl]pyrazine], the “ACTIVITY” value was “+ (exhibited muscarinic modulation activity for at least one muscarinic receptor, M1, M2, M3, M4, at a concentration of greater than 30 μM)”.
Turning to `Cc1cnc(C)c(N2CCN(CC3CC4C=CC3C4)CC2)n1` (stereo not drawn) [Compound 16, 3-[4-(5-bicyclo[2.2.1]hept-2-enylmethyl)piperazin-1-yl]-2,5-dimethyl-pyrazine], the “ACTIVITY” value is “+++ (exhibited muscarinic modulation activity for at least one muscarinic receptor, M1, M2, M3, M4, at a concentration of less than 5 μM)”.
Consider `c1cc(N2CCN(C3C4CC5CC(C4)CC3C5)CC2)ccn1` (stereo not drawn) [Compound 75, 1-(2-adamantyl)-4-(4-pyridyl)piperazine], for which the “ACTIVITY” value is “++ (exhibited muscarinic modulation activity for at least one muscarinic receptor, M1, M2, M3, M4, at a concentration of between 30 μM and 5 μM)”.
The value for `N#Cc1cccnc1N1CCN(C2C3CC4CC(C3)CC2C4)CC1` (stereo not drawn) [Compound 2, 2-[4-(2-adamantyl)piperazin-1-yl]nicotinonitrile] was “++ (exhibited muscarinic modulation activity for at least one muscarinic receptor, M1, M2, M3, M4, at a concentration of between 30 μM and 5 μM)”.
As to `C1=CC2CC1CC2CN1CCN(c2ncccn2)CC1` (stereo not drawn) [Compound 76, 2-[4-(5-bicyclo[2.2.1]hept-2-enylmethyl)piperazin-1-yl]pyrimidine], the “ACTIVITY” value is reported as “+++ (exhibited muscarinic modulation activity for at least one muscarinic receptor, M1, M2, M3, M4, at a concentration of less than 5 μM)”.
Consider `NC(=O)c1ccc(N2CCN(CC3CC4CCC3C4)CC2)nc1` (stereo not drawn) [Compound 14, 6-[4-(norbornan-2-ylmethyl)piperazin-1-yl]nicotinamide], for which the “ACTIVITY” value is reported as “−”.
Turning to `N#Cc1cc(-c2ccccc2)nnc1N1CCN(CC2CC3CCC2C3)CC1` (stereo not drawn) [Compound 59, 3-[4-(norbornan-2-ylmethyl)piperazin-1-yl]-6-phenyl-pyridazine-4-carbonitrile], the “ACTIVITY” value is listed as “+ (exhibited muscarinic modulation activity for at least one muscarinic receptor, M1, M2, M3, M4, at a concentration of greater than 30 μM)”.
As for `CCc1cnc(N2CCN(CC3CC4CCC3C4)CC2)nc1` (stereo not drawn) [Compound 22, 5-ethyl-2-[4-(norbornan-2-ylmethyl)piperazin-1-yl]-pyrimidine], the “ACTIVITY” value is given as “−”.
On to `CCOC(=O)N1C2CCC1CC(N1CCN(c3ccc(C(N)=O)cn3)CC1)C2` (stereo not drawn) [Compound 36, 3-[4-(5-carbamoyl-2-pyridyl)piperazin-1-yl]-8-azabicyclo[3.2.1]octane-8-carboxylic acid ethyl ester], for which the “ACTIVITY” value is “+++ (exhibited muscarinic modulation activity for at least one muscarinic receptor, M1, M2, M3, M4, at a concentration of less than 5 μM)”.
`N#Cc1ccc(N2CCN(CC3CC4C=CC3C4)CC2)nc1` (stereo not drawn) [Compound 34, 6-[4-(5-bicyclo[2.2.1]hept-2-enylmethyl)piperazin-1-yl]nicotinonitrile]: the “ACTIVITY” value was “+++ (exhibited muscarinic modulation activity for at least one muscarinic receptor, M1, M2, M3, M4, at a concentration of less than 5 μM)”.
The value for `c1cc(N2CCN(C3CC4CCC(C4)C3)CC2)ccn1` (stereo not drawn) [Compound 35, 1-(3-bicyclo[3.2.1]octyl)-4-(4-pyridyl)piperazine] was “++ (exhibited muscarinic modulation activity for at least one muscarinic receptor, M1, M2, M3, M4, at a concentration of between 30 μM and 5 μM)”; that for `CCOC(=O)N1C2CCC1CC(N1CCN(c3ccc(C#N)cn3)CC1)C2` (stereo not drawn) [Compound 66, 3-[4-(5-cyano-2-pyridyl)piperazin-1-yl]-8-azabicyclo[3.2.1]octane-8-carboxylic acid ethyl ester] was “+++ (exhibited muscarinic modulation activity for at least one muscarinic receptor, M1, M2, M3, M4, at a concentration of less than 5 μM)”; that for `CCOC(=O)N1C2CCC1CC(CN1CCN(c3ncccc3C#N)CC1)C2` (stereo not drawn) [Compound 68, 3-[[4-(3-cyano-2-pyridyl)piperazin-1-yl]methyl]-8-azabicyclo[3.2.1]octane-8-carboxylic acid ethyl ester] was “+++ (exhibited muscarinic modulation activity for at least one muscarinic receptor, M1, M2, M3, M4, at a concentration of less than 5 μM)”.
Turning to `CCOC(=O)N1C2CCC1CC(N1CCN(c3ncc(CC)cn3)CC1)C2` (stereo not drawn) [Compound 67, 3-[4-(5-ethylpyrimidin-2-yl)piperazin-1-yl]-8-azabicyclo[3.2.1]octane-8-carboxylic acid ethyl ester], the “ACTIVITY” value was “+++ (exhibited muscarinic modulation activity for at least one muscarinic receptor, M1, M2, M3, M4, at a concentration of less than 5 μM)”.
The value for `Cc1nccnc1N1CCN(CC2CC3C=CC2C3)CC1` (stereo not drawn) [Compound 17, 2-[4-(5-bicyclo[2.2.1]hept-2-enylmethyl)piperazin-1-yl]-3-methyl-pyrazine] was “+++ (exhibited muscarinic modulation activity for at least one muscarinic receptor, M1, M2, M3, M4, at a concentration of less than 5 μM)”.
